Measured values taken from patent US11505525B2, “Branched discrete PEG constructs” (Quanta BioDesign, Ltd., priority 2011, dated 2022).

How the values were obtained:
GLP-1 receptor = details: cited from earlier work
TAG-72 = experiment: Competition affinity assay of CC49-Fab′-branched dPEGs; format: binding; details: Fab′-NEM defined as 1.0; single aliquots
Protocol: A competition assay was run with a series of CC49-Fab′-dPEGs. In this run, single aliquots of each compound were assayed. The affinity constant of Fab′-NEM is defined as 1.0. From the data, it is that clear that the Relative Affinity Constant, which is a measure of how well the Fab′ binds to its molecular target, is minimally impacted by conjugation to branched dPEG products.
A competition assay was run with a series of CC49-Fab′-branched dPEGs. In this run, single aliquots of each compound were assayed. The affinity constant of Fab′-NEM is defined as 1.0, and the binding constants of the branched dPEG conjugates are as follows: […]

implanted tumors = experiment: Fused CT/PET imaging of tumor-bearing nude mice with 124I-labelled CC49 Fab′ conjugates; format: in vivo
Protocol: Fused PET/CT images of mice were taken of different antibody conjugates to determine their ability to localize implanted tumors (see Examples below). In particular, CC49 Fab′-S-NEM control was compared to CC49 Fab′-dPEG12-Tris(dPEG24 carboxyl)3, the CC49 Fab′ MoAb modified with one of the disclosed branched dPEGs containing terminal carboxyl groups.
• 1. sterilized, de-pyrogenated glass reaction vessel coated with IODO-GEN™ (SOP 310.0) (5-10 ml serum vials or 13 mm×100 mm test tubes) • 2. sterile, pyrogen-free phosphate buffer, 0.1 M. pH 7.2 • 3. sterile, pyrogen-free phosphate buffered saline • 4. 1 Sephadex G-25M (PD-10 disposable) column with tip • 5. Iodine-124 medium concentration, high activity, sodium iodide for protein iodination in pH=9.5, concentration—100 mCi/ml (IBA Molecular, Dulles VA) • 6. protein to be radiolabeled • 7. 10 sterilized, de-pyrogenated glass test tubes—12×75 mm • 8. 1 sterile Millex-GV 0.22 micron, 13 mm low protein binding filter unit (Millipore—cat. no: SLGV0130S) • 9. microliter pipettes (Eppendorf) • 10. sterilized plastic tips for microliter pipette • 11. parafilm—2 cm.×2 cm. • 12. close calibrator • 13. fume hood • 14. dry and wet radioactive waste containers • 15. disposable gloves • 16. lead shielding and lead containers for reaction vessel and test tubes • 17.2-5 ml. sterile, pyrogen-free syringes with needles • 18.1-3.5 in. spinal needle. Procedure • (Note: the specific activity desired will determine the quantities of protein and Iodine-124 used below.) • I. Place the desired amount of protein into the IODO-GEN™ reaction vessel. • 2. Add the desired amount of iodine-124 into the IODO-GEN™ reaction vessel. • 3. Add 50 μl of 0.1M, 7.2 pH phosphate buffer solution to reaction vessel. • 4. Cover the reaction vessel with parafilm. • 5. Incubate reaction vessel for 20 minutes with occasional swirling. • 6. Place reaction vessel into dose calibrator to determine radioactivity added. • 7. Stop reaction by removing reaction mixture from reaction vessel and placing mixture onto gel bed of Sephadex G-25M column (this separates unbound Iodine-124). • 8. Allow mixture to elute through column. (Note: the iodinated protein is collected from the column after the void volume has been eluted—approximately 2 ml). • 9. Place 1 ml phosphate buffered saline onto gel bed of Sephadex G-25M column and allow to elute through column. • 10. Place 4 ml phosphate buffered saline onto gel bed of Sephadex G-25M column and allow to elute through column. (Note: begin to collect Iodinated protein if you have not done so already). • 11. Collect fractions of 10 drops of eluted iodinated protein—total of 10 fractions. • 12. Assay the 10 fractions using the dose calibrator. • 13. Collect the fractions, which have the highest radioactivity and pool them together in a sterile, pyrogen-free syringe. • 14. Assay syringe of the collected iodinated fractions. • 15. Filter radiolabeled protein using Millex-GV 0.22 micron low protein binding filter unit into a sterile pyrogen-free syringe. • 16. Assay syringe of the filtered radiolabeled protein. • 17. Remove a sample for quality assurance procedures. Description of Animals • a. Female nude mice background, 4-5 weeks in age, were used in this project. For every 7 animals injected with tumors, 4 will actually show tumors in the useful size range. • b. The nude mice will receive 6×10^6 cells subcutaneously in 0.1 mL volumes in order to initiate tumors. • c. Nude mice are received on a routine basis from commercial sources. The mouse colony is routinely surveyed for adventitious agents by serological and histopathological procedures. Upon arrival, the mice are conditioned for up to one week and then moved into an experimental protocol. • d. The anesthetized mice are injected subcutaneously or intradermally into the flank area. For this injection, the mouse is held by a fold in the skin at the back and a 25G needle inserted through the skin. […]

[1] = mouse, in vivo
Source text: In a different study, PK data was taken on normal athymic mice injected with: mCC49 Fab′-dPEG12-Tris(dPEG12-Tris(m-dPEG11)3)3, mCC49 Fab′-dPEG12-Tris(dPEG24-acid)3, mCC49 Fab′-dPEG12-Tris(m-dPEG24)3, and mCC49 Fab′-dPEG12-Tris(dPEG12-acid)3.
PK data was taken with additional normal female athymic mice as follows: […]

20 kD polymer PEG attached with two Exendin-4 molecules: "the 20 kD polymer PEG attached with two Exendin-4 molecules"; binding reduced approximately 67 times by the "shielding effect" of the linear PEG
reduction of binding relative to bis-Exendin-4 without the polymeric PEG (GLP-1 receptor): approximately 67 times

CC49 Fab′-S-MAL-dPEG12-Tris(-dPEG12-CO2H)3 [CC49 Fab′-dPEG12-Tris(dPEG12 acid)3 (B)]
Relative Affinity Constant (Ka) (TAG-72): 0.3

Lys^27 Exendin-4 linear polymeric PEG 0.5 kD: "the Lys^27 in the Exendin-4 is modified with linear polymeric PEGs of MW, 1, 2 and 5 kD"; approximately 37 times lower binding, printed "0.5 kD"
binding of Lys^27-PEGylated Exendin-4, times lower (GLP-1 receptor): ~37 times

CC49 Fab′-S-MAL-dPEG12-Tris(-dPEG24-CO2H)3 [CC49 Fab′-dPEG12-Tris(dPEG24 acid)3]
fused CT/PET image: tumors and background (implanted tumors; 5 hours post injection): good imaging of the tumors with some background evident | fused CT/PET image: tumors and background (implanted tumors; 24 hours post injection): the tumors were well imaged with continuing diminution of background | fused CT/PET image: tumors and background (implanted tumors; 48 hours post injection): virtually no background is evident | fused CT/PET image: tumors and background (implanted tumors; 72 hours post injection): virtually no background is evident

CC49 Fab′-S-MAL-dPEG12-Tris(m-dPEG24)3 [CC49 Fab′-dPEG12-Tris(m-dPEG24)3]
fused CT/PET image: tumors and background (implanted tumors; 24 hours post injection): little background | fused CT/PET image: tumors and background (implanted tumors; 72 hours post injection): little background

two Exendin-4 molecules: "two Exendin-4 molecules in a very congested branching format"; "the bis-Exendin-4 without the large polymeric PEG"
increase in the binding (GLP-1 receptor; two Exendin-4 molecules in branching format): 3.5 times

Lys^27 Exendin-4 linear polymeric PEG 1 kD: "the Lys^27 in the Exendin-4 is modified with linear polymeric PEGs of MW, 1, 2 and 5 kD"; binding almost the same for 1 kD
binding of Lys^27-PEGylated Exendin-4, times lower (GLP-1 receptor): almost the same

m CC49 Fab′-dPEG12-Tris(dPEG12-Tris(m-dPEG11)3)3 [Fab-dPEG-D]
clearance over time [1]: least rapid clearance

CC49 Fab′-S-MAL-dPEG12-Tris(-dPEG12-Tris(m-dPEG11)3)3
Relative Affinity Constant (Ka) (TAG-72): 0.4

Lys^27 Exendin-4 linear polymeric PEG 2 kD: "the Lys^27 in the Exendin-4 is modified with linear polymeric PEGs of MW, 1, 2 and 5 kD"; approximately 12 times lower binding
binding of Lys^27-PEGylated Exendin-4, times lower (GLP-1 receptor): approximately 12 times
